# Measurements reported in the OligoGym collection.
# HELM strings list units from the 5' end as sugar, base in round brackets, then linkage (d deoxyribose, r ribose, m 2'-O-methyl, p phosphodiester). Strings are as the collection lists them; they lack the last nucleoside at the 3' end of the tested compound. [moe] = 2'-O-(2-methoxyethyl) (MOE); [sp] = phosphorothioate linkage; [m5C] = 5-methylcytosine
# Molecular target: GFAP
# Assay: mouse, dose not given
# Settings: ASO
substance,measurement,value
RNA1{[moe](G)[sp].[moe]([m5C])p.[moe](T)p.[moe]([m5C])p.[moe]([m5C])[sp].d([m5C])[sp].d(A)[sp].d([m5C])[sp].d(A)[sp].d([m5C])[sp].d(T)[sp].d(A)[sp].d([m5C])[sp].d(A)[sp].d(T)[sp].[moe](A)p.[moe](T)p.[moe](A)[sp].[moe](A)}$$$$ (last 3' nucleoside missing),3 h FOB score,2 score 0-7
RNA1{[moe](A)[sp].[moe](G)p.[moe](G)p.[moe]([m5C])p.[moe](A)p.[moe]([m5C])p.d(A)[sp].d(G)[sp].d(T)[sp].d(T)[sp].d([m5C])[sp].d([m5C])[sp].d([m5C])[sp].d(A)[sp].d(G)[sp].d(A)[sp].[moe](T)p.[moe](A)[sp].[moe]([m5C])}$$$$ (last 3' nucleoside missing),3 h FOB score,1 score 0-7
RNA1{[moe](T)[sp].[moe](T)p.[moe](G)p.[moe](G)p.[moe]([m5C])p.d(A)[sp].d(G)[sp].d(T)[sp].d(A)[sp].d(T)[sp].d(T)[sp].d(A)[sp].d([m5C])[sp].d([m5C])[sp].d(T)[sp].[moe]([m5C])p.[moe](T)p.[moe](A)[sp].[moe]([m5C])}$$$$ (last 3' nucleoside missing),3 h FOB score,0 score 0-7
RNA1{[moe](T)[sp].[moe](G)p.[moe](T)p.[moe](G)p.d(T)[sp].d(A)[sp].d(T)[sp].d(T)[sp].d(A)[sp].d(G)[sp].d(G)[sp].d(A)[sp].d(T)[sp].d([m5C])[sp].[moe]([m5C])p.[moe]([m5C])p.[moe](A)p.[moe](T)[sp].[moe]([m5C])}$$$$ (last 3' nucleoside missing),3 h FOB score,3 score 0-7
RNA1{[moe](G)[sp].[moe](G)p.[moe](A)p.[moe](G)p.[moe](G)[sp].d(G)[sp].d(T)[sp].d(G)[sp].d(A)[sp].d([m5C])[sp].d([m5C])[sp].d([m5C])[sp].d(A)[sp].d(A)[sp].d(G)[sp].[moe](T)p.[moe]([m5C])p.[moe]([m5C])[sp].[moe](T)}$$$$ (last 3' nucleoside missing),3 h FOB score,4 score 0-7
RNA1{[moe](T)[sp].[moe](T)p.[moe](T)p.[moe](A)p.[moe](T)[sp].d(T)[sp].d(T)[sp].d(T)[sp].d(T)[sp].d([m5C])[sp].d([m5C])[sp].d(T)[sp].d([m5C])[sp].d(A)[sp].d(G)[sp].[moe]([m5C])p.[moe](G)p.[moe](A)[sp].[moe]([m5C])}$$$$ (last 3' nucleoside missing),3 h FOB score,2 score 0-7
RNA1{[moe](A)[sp].[moe](G)p.[moe](G)p.[moe](G)p.[moe](T)[sp].d(G)[sp].d(G)[sp].d([m5C])[sp].d(T)[sp].d(T)[sp].d([m5C])[sp].d(A)[sp].d(T)[sp].d([m5C])[sp].d(T)[sp].[moe](G)p.[moe]([m5C])p.[moe](T)[sp].[moe](T)}$$$$ (last 3' nucleoside missing),3 h FOB score,2 score 0-7
RNA1{[moe](G)[sp].[moe]([m5C])p.[moe]([m5C])p.[moe](T)p.[moe](T)[sp].d([m5C])[sp].d([m5C])[sp].d([m5C])[sp].d(T)[sp].d(T)[sp].d(T)[sp].d([m5C])[sp].d([m5C])[sp].d(T)[sp].d(G)[sp].[moe](T)p.[moe]([m5C])p.[moe](T)[sp].[moe](G)}$$$$ (last 3' nucleoside missing),3 h FOB score,5 score 0-7
RNA1{[moe](T)[sp].[moe](A)p.[moe](G)p.[moe](T)p.d([m5C])[sp].d(A)[sp].d(G)[sp].d([m5C])[sp].d([m5C])[sp].d(T)[sp].d(G)[sp].d(G)[sp].d(T)[sp].d(T)[sp].[moe](A)p.[moe](G)p.[moe]([m5C])p.[moe]([m5C])[sp].[moe](T)}$$$$ (last 3' nucleoside missing),3 h FOB score,3 score 0-7
RNA1{[moe]([m5C])[sp].[moe](A)p.[moe]([m5C])p.[moe](A)p.d(T)[sp].d(T)[sp].d([m5C])[sp].d(A)[sp].d([m5C])[sp].d(T)[sp].d(A)[sp].d(A)[sp].d(T)[sp].d(A)[sp].[moe](T)p.[moe](T)p.[moe](T)p.[moe](A)[sp].[moe](A)}$$$$ (last 3' nucleoside missing),3 h FOB score,0 score 0-7
RNA1{[moe](G)[sp].[moe]([m5C])p.[moe](T)p.[moe](T)p.[moe](T)p.d(T)[sp].d(G)[sp].d([m5C])[sp].d([m5C])[sp].d([m5C])[sp].d([m5C])[sp].d([m5C])[sp].d(T)[sp].d(G)[sp].d(T)[sp].[moe](A)p.[moe](G)p.[moe](T)[sp].[moe](G)}$$$$ (last 3' nucleoside missing),3 h FOB score,4 score 0-7
RNA1{[moe](A)[sp].[moe]([m5C])p.[moe](G)p.[moe](T)p.[moe]([m5C])p.d(A)[sp].d([m5C])[sp].d(A)[sp].d(T)[sp].d(T)[sp].d([m5C])[sp].d(A)[sp].d([m5C])[sp].d(T)[sp].d(A)[sp].[moe](A)p.[moe](T)p.[moe](A)[sp].[moe](T)}$$$$ (last 3' nucleoside missing),3 h FOB score,0 score 0-7
RNA1{[moe](G)[sp].[moe](G)p.[moe](T)p.[moe](T)p.[moe](A)[sp].d(G)[sp].d([m5C])[sp].d([m5C])[sp].d(T)[sp].d(T)[sp].d(T)[sp].d([m5C])[sp].d(T)[sp].d(G)[sp].d(A)[sp].[moe](T)p.[moe](G)p.[moe]([m5C])[sp].[moe](T)}$$$$ (last 3' nucleoside missing),3 h FOB score,3 score 0-7
RNA1{[moe](T)[sp].[moe](G)p.[moe](T)p.[moe](G)p.[moe](A)[sp].d([m5C])[sp].d(T)[sp].d(A)[sp].d(T)[sp].d([m5C])[sp].d(T)[sp].d(A)[sp].d(G)[sp].[moe](G)p.[moe](A)p.[moe](T)[sp].[moe](T)}$$$$ (last 3' nucleoside missing),3 h FOB score,3 score 0-7
RNA1{[moe](A)[sp].[moe](G)p.[moe](A)p.[moe](G)p.[moe](T)[sp].d(G)[sp].d(T)[sp].d(G)[sp].d(T)[sp].d(A)[sp].d(T)[sp].d(T)[sp].d(A)[sp].d(G)[sp].d(G)[sp].[moe](A)p.[moe](T)p.[moe]([m5C])[sp].[moe]([m5C])}$$$$ (last 3' nucleoside missing),3 h FOB score,5 score 0-7
RNA1{[moe](G)[sp].[moe]([m5C])p.[moe]([m5C])p.[moe](A)p.[moe](T)[sp].d(T)[sp].d(T)[sp].d(A)[sp].d(T)[sp].d([m5C])[sp].d(T)[sp].d(G)[sp].d(T)[sp].[moe](G)p.[moe]([m5C])p.[moe](T)[sp].[moe](T)}$$$$ (last 3' nucleoside missing),3 h FOB score,1 score 0-7
RNA1{[moe](T)[sp].[moe](G)p.[moe](G)p.[moe]([m5C])p.[moe](A)p.d(G)[sp].d(T)[sp].d(A)[sp].d(T)[sp].d(T)[sp].d(A)[sp].d([m5C])[sp].d([m5C])[sp].d(T)[sp].d([m5C])[sp].[moe](T)p.[moe](A)p.[moe]([m5C])[sp].[moe](T)}$$$$ (last 3' nucleoside missing),3 h FOB score,1 score 0-7
RNA1{[moe]([m5C])[sp].[moe]([m5C])p.[moe](A)p.[moe](G)p.[moe](T)p.d(G)[sp].d(T)[sp].d([m5C])[sp].d(T)[sp].d(T)[sp].d([m5C])[sp].d(A)[sp].d([m5C])[sp].d(T)[sp].d(T)[sp].[moe](T)p.[moe](G)p.[moe]([m5C])[sp].[moe](T)}$$$$ (last 3' nucleoside missing),3 h FOB score,0 score 0-7
